ChEMBL document CHEMBL3638657, “Substituted phenylureas and phenylamides as vanilloid receptor ligands” (2015)

Columns and labels:
[1] = target: Transient receptor potential cation channel subfamily V member 1 (Homo sapiens, UniProt Q8NER1); test: FLIPR Assay: The agonistic or antagonistic effect of the substances to be tested on the vanilloid receptor 1 (VR1) can also be determined using the following assay. In this assay, the influx of Ca2+ through the channel is quantified with the aid of a Ca2+-sensitive dye (type Fluo-4, Molecular Probes Europe BV, Leiden, the Netherlands) in a fluorescent imaging plate reader (FLIPR, Molecular Devices, Sunnyvale, USA).Method:Chinese hamster ovary cells (CHO K1 cells, European Collection of Cell Cultures (ECACC) United Kingdom) are stably transfected with the VR1 gene. For functional testing, these cells are plated out on poly-D-lysine-coated black 96-well plates having a clear base (BD Biosciences, Heidelberg, Germany) at a density of 25,000 cells/well. The cells are incubated overnight at 37 C. and 5% CO2 in a culture medium (Ham's F12 nutrient mixture, 10% by volume of FCS (foetal calf serum), 18 ug/ml of L-proline). The next day the cells are incubated with Fluo-4.; type: cell-based
Chain of Transient receptor potential cation channel subfamily V member 1 (Homo sapiens, UniProt Q8NER1) (Q8NER1 whole entry): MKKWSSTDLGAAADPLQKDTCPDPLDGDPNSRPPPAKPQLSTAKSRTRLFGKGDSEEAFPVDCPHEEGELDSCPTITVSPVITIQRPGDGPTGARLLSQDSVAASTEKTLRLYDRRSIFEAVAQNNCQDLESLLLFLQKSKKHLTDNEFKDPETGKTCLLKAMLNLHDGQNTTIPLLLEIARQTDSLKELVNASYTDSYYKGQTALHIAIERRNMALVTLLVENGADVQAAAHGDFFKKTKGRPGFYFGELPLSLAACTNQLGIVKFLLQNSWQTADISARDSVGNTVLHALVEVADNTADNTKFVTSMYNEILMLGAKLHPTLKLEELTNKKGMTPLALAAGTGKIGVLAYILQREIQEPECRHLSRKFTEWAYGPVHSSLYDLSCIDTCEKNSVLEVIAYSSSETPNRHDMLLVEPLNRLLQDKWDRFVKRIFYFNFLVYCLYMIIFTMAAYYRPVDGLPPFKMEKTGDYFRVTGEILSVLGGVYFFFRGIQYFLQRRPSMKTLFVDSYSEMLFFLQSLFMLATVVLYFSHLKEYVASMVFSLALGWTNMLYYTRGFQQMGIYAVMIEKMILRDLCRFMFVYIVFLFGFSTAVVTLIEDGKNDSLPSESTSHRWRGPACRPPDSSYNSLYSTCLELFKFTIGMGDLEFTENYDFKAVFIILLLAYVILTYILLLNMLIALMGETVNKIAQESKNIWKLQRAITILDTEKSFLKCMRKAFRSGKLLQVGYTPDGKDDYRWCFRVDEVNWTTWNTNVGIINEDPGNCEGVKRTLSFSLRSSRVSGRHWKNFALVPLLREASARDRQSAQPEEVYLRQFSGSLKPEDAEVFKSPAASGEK

[2] = target: Transient receptor potential cation channel subfamily V member 1 (Rattus norvegicus, UniProt O35433); test: FLIPR Assay: The agonistic or antagonistic effect of the substances to be tested on the rat-species vanilloid receptor 1 (VR1/TRPV1) can be determined using the following assay. In this assay, the influx of Ca2+ through the receptor channel is quantified with the aid of a Ca2+-sensitive dye (type Fluo-4, Molecular Probes Europe BV, Leiden, the Netherlands) in a fluorescent imaging plate reader (FLIPR, Molecular Devices, Sunnyvale, USA).Method:Complete medium: 50 ml HAMS F12 nutrient mixture (Gibco Invitrogen GmbH, Karlsruhe, Germany) with10% by volume of FCS (foetal calf serum, Gibco Invitrogen GmbH, Karlsruhe, Germany, heat-inactivated);2 mM L-glutamine (Sigma, Munich, Germany);1% by weight of AA solution (antibiotic/antimyotic solution, PAA, Pasching, Austria) and 25 ng/ml NGF medium (2.5 S, Gibco Invitrogen GmbH, Karlsruhe, Germany).
Chain of Transient receptor potential cation channel subfamily V member 1 (Rattus norvegicus, UniProt O35433) (O35433 whole entry): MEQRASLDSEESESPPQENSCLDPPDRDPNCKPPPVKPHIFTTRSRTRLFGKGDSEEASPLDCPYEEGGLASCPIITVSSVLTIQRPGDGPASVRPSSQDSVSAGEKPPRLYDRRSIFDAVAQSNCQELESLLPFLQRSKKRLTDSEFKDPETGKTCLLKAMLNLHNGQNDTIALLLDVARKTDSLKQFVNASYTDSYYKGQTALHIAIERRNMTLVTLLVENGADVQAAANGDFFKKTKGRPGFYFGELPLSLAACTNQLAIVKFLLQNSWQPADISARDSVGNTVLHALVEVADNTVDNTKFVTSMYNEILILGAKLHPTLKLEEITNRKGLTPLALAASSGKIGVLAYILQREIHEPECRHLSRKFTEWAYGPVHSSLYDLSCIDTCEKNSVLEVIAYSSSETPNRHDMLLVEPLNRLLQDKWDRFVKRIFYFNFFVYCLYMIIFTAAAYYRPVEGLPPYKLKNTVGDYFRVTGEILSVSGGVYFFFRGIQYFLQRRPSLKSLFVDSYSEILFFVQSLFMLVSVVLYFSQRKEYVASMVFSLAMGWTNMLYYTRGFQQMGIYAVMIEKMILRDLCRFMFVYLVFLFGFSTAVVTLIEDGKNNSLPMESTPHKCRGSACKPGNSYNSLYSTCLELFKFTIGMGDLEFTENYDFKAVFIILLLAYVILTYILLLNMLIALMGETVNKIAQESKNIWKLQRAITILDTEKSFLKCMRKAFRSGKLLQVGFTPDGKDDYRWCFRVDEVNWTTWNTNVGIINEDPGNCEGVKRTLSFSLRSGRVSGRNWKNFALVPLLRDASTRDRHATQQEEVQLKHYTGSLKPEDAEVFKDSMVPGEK

Cc1ccc(-n2nc(C(C)(C)C)cc2CNC(=O)C(C)c2ccc(NS(C)(=O)=O)c(F)c2)cc1 (configuration not stated)
Ki [1]: 8 nM
Ki [2]: 5.9 nM
